From US20240041042A1, “1-(PYRIDYL)-5-AZINYLPYRAZOLE DERIVATIVES, AND THEIR USE FOR CONTROL OF UNDESIRED PLANT GROWTH” (Bayer Aktiengesellschaft, priority 2020, published 2024)
Read-outs that look alike come from different tables or passages of the source.

Tests used:
Format in all cases: in vivo
Zea mays (ZEAMX) [1] = settings: for Post-emergence action against ZEAMX in % (crop plant compatibility): 20 g/ha, effect in comparison to untreated controls; for Post-emergence action against ZEAMX in %: crop plant compatibility, effect vs untreated controls
How it was run: (§1)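 Percent effect on the crop was judged by eye against untreated controls, where 0% means like control and 100% means dead plants. Plants had been sprayed post-emergence at the one-leaf stage and then kept under optimum greenhouse conditions for about 3 weeks.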

[2] = tested on: Triticum aestivum (TRZAS); settings: crop plant compatibility, effect vs untreated controls
How it was run: as §1

Oryza sativa (ORYSA) [3] = settings: crop plant compatibility
How it was run: as §1

Avena fatua (AVEFA) = assay: Pre-emergence herbicidal action against AVEFA; settings: 320 g/ha, visual scoring after about 3 weeks vs untreated controls
How it was run: (§2)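 Dosages of 320 g/ha or less; pre-emergence; WP or EC in aqueous spray, 0.5% additive, 600 l/ha; greenhouse; visual % effect after ~3 wk relative to control pots.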

[4] = tested on: Echinochloa crus-galli (ECHCG); assay: Pre-emergence herbicidal action against ECHCG; settings: dosage 320 g/ha
How it was run: as §2

[5] = tested on: Echinochloa crus-galli (ECHCG); assay: Post-emergence herbicidal action against ECHCG; settings: dosage 80 g/ha
How it was run: (§3)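 Greenhouse plants sprayed at the one-leaf stage, 2–3 weeks after sowing, with WP or EC formulations plus 0.5% additive at 600 l/ha water. Activity rated visually after about 3 weeks versus untreated controls (100% = dead, 0% = like control), at 320 g/ha or lower.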

[6] = tested on: Polygonum convolvulus (POLCO); assay: Pre-emergence herbicidal action against POLCO
How it was run: as §2

Brassica napus (BRSNW) [7] = assay: Post-emergence crop plant compatibility, BRSNW; settings: effect in comparison to untreated controls
Method: Seeds of monocotyledonous and dicotyledonous weeds and crop plants are placed in sandy loam in plastic or organic planting pots, covered with soil and cultivated in a greenhouse under controlled growth conditions. 2 to 3 weeks after sowing, the test plants are treated at the one-leaf stage. The compounds of the invention, formulated in the form of wettable powders (WP) or as emulsion concentrates (EC), are then sprayed onto the green parts of the plants as aqueous suspension or emulsion with addition of 0.5% additive at a water application rate of 600 l/ha (converted). After the test plants have been kept in the greenhouse under optimum growth conditions for about 3 weeks, the activity of the preparations is rated visually in comparison to untreated controls. For example, 100% activity=the plants have died, 0% activity=like control plants.
The observed effects on selected crop plants are reported here in comparison to the untreated controls (values in %). The appendices “a”, “b” and “c” give differentiation by dosage used with otherwise the same crop plants tested.

[8] = tested on: Verconica persica (VERPE); assay: Pre-emergence herbicidal action against VERPE; settings: dosage 320 g/ha
How it was run: as §2

Zea mays (ZEAMX) [9] = settings: pre-emergence, crop plant compatibility, in comparison to untreated controls
How it was run: (§4)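 Crop injury rated visually in percent against untreated plants roughly 3 weeks after treatment (0% no effect, 100% plants dead). Compounds, as WP or EC with 0.5% additive in 600 l/ha water, were applied to the covering soil right after sowing; greenhouse growth. Suffixes a, b, c denote different dosages.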

[10] = tested on: Amaranthus retroflexus (AMARE); assay: Pre-emergence herbicidal action against AMARE; settings: visual scoring after about 3 weeks vs untreated controls
How it was run: as §2

Lolium rigidum (LOLRI) = assay: Pre-emergence herbicidal action against LOLRI; settings: dosage 320 g/ha
How it was run: as §2

Viola tricolor (VIOTR) = assay: Pre-emergence herbicidal action against VIOTR
How it was run: as §2

Setaria viridis (SETVI) [11] = assay: Pre-emergence herbicidal action against SETVI; settings: dosage 320 g/ha
How it was run: as §2

Setaria viridis (SETVI) [12] = assay: Post-emergence herbicidal action against SETVI; settings: dosage 80 g/ha
How it was run: as §3

[13] = tested on: Alopecurus myosuroides (ALOMY); assay: Pre-emergence herbicidal action against ALOMY; settings: scored visually after about 3 weeks, 100% = plants have died
How it was run: as §2

Brassica napus (BRSNW) [14] = settings: crop plant compatibility, in comparison to untreated controls
How it was run: as §4

[15] = tested on: Triticum aestivum (TRZAS); settings: pre-emergence, crop plant compatibility, in comparison to untreated controls
How it was run: as §4

Oryza sativa (ORYSA) [16] = settings: pre-emergence, crop plant compatibility, in comparison to untreated controls
How it was run: as §4

Glycine max (GLXMA) = settings: pre-emergence, crop plant compatibility, in comparison to untreated controls
How it was run: as §4

[17] = 20 g/ha, effect vs untreated controls
[18] = 80 g/ha, effect in comparison to untreated controls

Q: Which “Post-emergence action against ZEAMX in % (crop plant compatibility)” value (Zea mays (ZEAMX) [1]) does the source give for `CCOC(=O)CCNC(=O)COc1nn(-c2ncccc2F)c(-c2ccc(OC)nc2)c1Br` [Example I-47] here?
A: 10%

Q: And the “Post-emergence action against ZEAMX in %” value (Zea mays (ZEAMX) [1]; 80 g/ha)?
A: 10%

Q: What about the “Post-emergence action against TRZAS in %” value ([2]; 20 g/ha) of the same molecule?
A: 10%

Q: And the “Post-emergence action against ORYSA in %” value (Oryza sativa (ORYSA) [3]; [17])?
A: 20%

Q: What about the “Post-emergence action against ORYSA in %” value (Oryza sativa (ORYSA) [3]; [18]) of the same molecule?
A: 20%

Q: And the “Pre-emergence action against AVEFA in %” value (Avena fatua (AVEFA))?
A: 90%

Q: And the “Pre-emergence action against ECHCG in %” value [4]?
A: 90%

Q: And the “Post-emergence action against ECHCG in %” value [5]?
A: 80%

Q: What about the “Pre-emergence action against POLCO in %” value ([6]; dosage 80 g/ha) of the same molecule?
A: 80%

Q: And the “Pre-emergence action against POLCO in %” value ([6]; dosage 320 g/ha)?
A: 90%

Q: And the “Post-emergence action against BRSNW in %” value (Brassica napus (BRSNW) [7]; 20 g/ha)?
A: 10%

Q: And the “Pre-emergence action against VERPE in %” value [8]?
A: 90%

Q: And the “Pre-emergence action against ZEAMX in %” value (Zea mays (ZEAMX) [9]; 80 g/ha)?
A: 20%

Q: What about the “Pre-emergence action against AMARE in %” value ([10]; 80 g/ha) of the same molecule?
A: 100%

Q: What about the “Pre-emergence action against AMARE in %” value ([10]; 320 g/ha) of the same molecule?
A: 100%

Q: And the “Pre-emergence action against LOLRI in %” value (Lolium rigidum (LOLRI))?
A: 100%

Q: And the “Pre-emergence action against VIOTR in %” value (Viola tricolor (VIOTR); 320 g/ha, Viola tricolor)?
A: 100%

Q: What about the “Pre-emergence action against VIOTR in %” value (Viola tricolor (VIOTR); dosage 80 g/ha) of the same molecule?
A: 100%

Q: What about the “Pre-emergence action against SETVI in %” value (Setaria viridis (SETVI) [11]) of the same molecule?
A: 100%

Q: And the “Post-emergence action against SETVI in %” value (Setaria viridis (SETVI) [12])?
A: 90%

Q: And the “Pre-emergence action against ALOMY” value ([13]; 80 g/ha)?
A: 90%

Q: What about the “Pre-emergence action against ALOMY” value ([13]; 320 g/ha) of the same molecule?
A: 90%

Q: What does the source list for `O=C(O)C1CCN(C(=O)COc2nn(-c3ccccn3)c(-c3ccc(F)nc3)c2Br)CC1` [Example I-62]?
A: Post-emergence action against ZEAMX in % (Zea mays (ZEAMX) [1]; 320 g/ha): 20%; Post-emergence action against TRZAS in % ([2]; 80 g/ha): 0%; Post-emergence action against TRZAS in % ([2]; 320 g/ha): 0%; Post-emergence action against ORYSA in % (Oryza sativa (ORYSA) [3]; [18]): 0%; Post-emergence action against ORYSA in % (Oryza sativa (ORYSA) [3]; 320 g/ha, effect in comparison to untreated controls): 0%; Post-emergence action against BRSNW in % (Brassica napus (BRSNW) [7]; 80 g/ha): 20%; Pre-emergence action against ZEAMX in % (Zea mays (ZEAMX) [9]; 80 g/ha): 0%; Pre-emergence action against BRSNW in % (Brassica napus (BRSNW) [14]; 80 g/ha): 0%; Pre-emergence action against TRZAS in % ([15]; 80 g/ha): 0%; Pre-emergence action against TRZAS in % ([15]; 320 g/ha): 0%; Pre-emergence action against ORYSA in % (Oryza sativa (ORYSA) [16]; 80 g/ha): 0%; Pre-emergence action against ORYSA in % (Oryza sativa (ORYSA) [16]; 320 g/ha): 0%

Q: What does the source list for `COC(=O)C1CCN(C(=O)COc2nn(-c3ccccn3)c(-c3ccc(F)nc3)c2Br)C1` (stereo not shown) [Example I-109]?
A: Post-emergence action against ZEAMX in % (crop plant compatibility) (Zea mays (ZEAMX) [1]): 10%; Post-emergence action against ZEAMX in % (Zea mays (ZEAMX) [1]; 80 g/ha): 10%; Post-emergence action against TRZAS in % ([2]; 20 g/ha): 0%; Post-emergence action against TRZAS in % ([2]; 80 g/ha): 10%; Post-emergence action against ORYSA in % (Oryza sativa (ORYSA) [3]; [17]): 0%; Post-emergence action against ORYSA in % (Oryza sativa (ORYSA) [3]; [18]): 0%; Post-emergence action against BRSNW in % (Brassica napus (BRSNW) [7]; 20 g/ha): 0%; Post-emergence action against BRSNW in % (Brassica napus (BRSNW) [7]; 80 g/ha): 10%; Pre-emergence action against ZEAMX in % (Zea mays (ZEAMX) [9]; 80 g/ha): 10%; Pre-emergence action against ZEAMX in % (Zea mays (ZEAMX) [9]; 320 g/ha): 10%; Pre-emergence action against BRSNW in % (Brassica napus (BRSNW) [14]; 80 g/ha): 10%; Pre-emergence action against BRSNW in % (Brassica napus (BRSNW) [14]; 320 g/ha): 10%; Pre-emergence action against GLXMA in % (Glycine max (GLXMA); 80 g/ha): 20%; Pre-emergence action against GLXMA in % (Glycine max (GLXMA); 320 g/ha): 20%; Pre-emergence action against TRZAS in % ([15]; 80 g/ha): 0%; Pre-emergence action against TRZAS in % ([15]; 320 g/ha): 10%; Pre-emergence action against ORYSA in % (Oryza sativa (ORYSA) [16]; 80 g/ha): 10%; Pre-emergence action against ORYSA in % (Oryza sativa (ORYSA) [16]; 320 g/ha): 10%
